PubChem BioAssay (NCI)
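Growth conditions: 96-well plates. Treatment: test compound, 48 hours, 5 concentrations. Analysis: linear interpolation between bracketing concentrations; unreached endpoints set to highest concentration. Here, GI50 denotes the concentration required for 50% inhibition of growth. TGI: concentration producing complete growth inhibition.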

What was measured:
Experiment in all cases: NCI tumour cell line growth inhibition, 48 h
SNB-19 CNS = tested on: SNB-19 CNS
DU-145 prostate = tested on: DU-145 prostate
MDA-MB-231 breast = tested on: MDA-MB-231 breast
PC-3 prostate = tested on: PC-3 prostate
RPMI-8226 leukemia = tested on: RPMI-8226 leukemia
MDA-N = tested on: MDA-N
UO-31 renal = tested on: UO-31 renal
T-47D breast = tested on: T-47D breast
MALME-3M melanoma = tested on: MALME-3M melanoma
SNB-75 CNS = tested on: SNB-75 CNS

SMILES | TGI (SNB-19 CNS) | TGI (DU-145 prostate) | TGI (MDA-MB-231 breast) | TGI (PC-3 prostate) | TGI (RPMI-8226 leukemia) | TGI (MDA-N) | TGI (UO-31 renal) | TGI (T-47D breast) | TGI (MALME-3M melanoma) | TGI (SNB-75 CNS) | GI50 (SNB-19 CNS) | GI50 (DU-145 prostate) | GI50 (MDA-MB-231 breast) | GI50 (PC-3 prostate) | GI50 (RPMI-8226 leukemia) | GI50 (UO-31 renal) | GI50 (T-47D breast) | GI50 (MALME-3M melanoma) | GI50 (SNB-75 CNS)
CN(CCN)[C@H](CSSC[C@@H](c1ccccc1O)N(C)CCN)c1ccccc1O | 26.2 µM | 33.1 µM | 26.5 µM | 30.2 µM | 43.2 µM | 24.6 µM | 23.9 µM | 48.3 µM | 33.3 µM | 29 µM |  |  |  |  |  |  |  |  | 
O=C(Nc1cccc(-n2ccc3c(NC(=O)c4ccccc4)ncnc32)c1)Nc1ccc(Cl)c(C(F)(F)F)c1 | 10.8 µM | 11.3 µM | 7.94 µM | 5.93 µM | 2.8 µM |  | 10.9 µM | 9.85 µM | 9.01 µM | 9.15 µM | 4.41 µM | 4.52 µM | 2.06 µM | 1.25 µM | 1.02 µM | 3.44 µM | 2.61 µM | 1.99 µM | 0.954 µM
C[N+]1(C)CCCC(C#N)(c2ccccc2)CC1 (stereo unspecified) | > 100 µM | > 100 µM |  | > 100 µM | > 100 µM | > 100 µM | > 100 µM | > 100 µM | > 100 µM | > 100 µM |  |  |  |  |  |  |  |  | 
Nc1nc(Cl)c(CO)c(NCC2(CO)CCC2)n1 | > 100 µM | > 100 µM | > 100 µM | > 100 µM | > 100 µM | > 100 µM | > 100 µM |  | > 100 µM | > 100 µM |  |  |  |  |  |  |  |  | 
Cc1ccc(S(=O)(=O)OC[C@@]2(C)CC[C@]3(C)CC[C@]4(C)C(=C3C2)C=C[C@@H]2[C@@]3(C)CCCNC(C)(C)[C@@H]3CC[C@]24C)cc1 |  | 3.4 µM |  | 2.98 µM | 4.63 µM |  | 2.85 µM | 3.26 µM | 3.26 µM | 3.1 µM |  | 1.81 µM |  | 1.53 µM | 2.12 µM | 1.46 µM | 1.55 µM | 1.68 µM | 1.61 µM
O=c1cc(-c2cccc(OC(F)(F)F)c2)[nH]c2ccc(N3CCCC3)cc12 | 11.9 µM | 0.177 µM |  |  |  |  | > 100 µM | > 100 µM | > 100 µM |  |  |  |  |  |  |  |  |  | 
N#C[S-].[La+3].c1ccc(-c2ccccn2)nc1.c1ccc(-c2ccccn2)nc1.c1ccc(-c2ccccn2)nc1 | > 100 µM |  |  |  |  |  | 55.9 µM |  | 60.9 µM | > 100 µM | 54.6 µM |  |  |  |  | 10.8 µM |  | 23.3 µM | 25.9 µM
NC(CCC(=O)c1ccccn1)C(=O)O (stereo unspecified) | > 100 µM | > 100 µM | > 100 µM | > 100 µM | > 100 µM | > 100 µM | > 100 µM | > 100 µM | > 100 µM |  |  |  |  |  |  |  |  |  | 
CCN(CC)c1c(C(C)(C)C)c(=O)n2ccsc2c1OC(C)=O | 30.4 µM | 38.7 µM | 32.5 µM | 23.6 µM | > 100 µM | 34.6 µM | 31.7 µM |  | 25.8 µM | 31 µM |  |  |  |  |  |  |  |  | 
CSc1cc(Cl)c(C)cc1S(=O)(=O)NC(=O)NNc1ccc(C)cc1 | > 100 µM | > 100 µM | > 100 µM | > 100 µM |  | > 100 µM |  | > 100 µM | > 100 µM | > 100 µM |  |  |  |  |  |  |  |  | 
Cc1ccc(S(=O)(=O)N/N=C2\C=CC3(CC2)C(=O)N(I)c2ccccc23)cc1 (stereo unspecified) | > 100 µM |  | > 100 µM | > 100 µM | > 100 µM | > 100 µM | > 100 µM | > 100 µM | 6.82 µM | > 100 µM |  |  |  |  |  |  |  |  | 
COc1ccc(OC)c2c(C(C)=O)cccc12 | > 100 µM | > 100 µM | > 100 µM | > 100 µM | > 100 µM |  | > 100 µM | > 100 µM | > 100 µM |  |  |  |  |  |  |  |  |  | 
O=C(/C=C/c1ccc(OCc2ccccc2)cc1)NCc1ccc(C(=O)NCCc2ccccc2)cc1 | > 100 µM | > 100 µM | > 100 µM | > 100 µM |  | > 100 µM | > 100 µM | > 100 µM | > 100 µM | > 100 µM |  |  |  |  |  |  |  |  | 
Cc1c2cc[n+](Cc3ccc(I)cc3)cc2c(C)c2c1[nH]c1ccccc12 | 9.55 µM |  |  |  | 2.4 µM |  | 15.8 µM |  | 1.81 µM | 1.58 µM |  |  |  |  |  |  |  |  | 
Cc1cccc2c(=O)c3c(O)cc(O)cc3n(C)c12 | > 100 µM | > 100 µM | > 100 µM | > 100 µM | > 100 µM | > 100 µM |  |  | > 100 µM | > 100 µM |  |  |  |  |  |  |  |  | 
CO[C@@]12C[C@H](CNC(=O)c3ccc[nH]3)O[C@@H]1NC(=O)N2 | > 100 µM | > 100 µM | > 100 µM | > 100 µM | > 100 µM |  | > 100 µM | > 100 µM | > 100 µM | > 100 µM |  |  |  |  |  |  |  |  | 
CNC(=O)OCc1cnc([N+](=O)[O-])n1C |  | > 100 µM | > 100 µM | > 100 µM | > 100 µM | > 100 µM | > 100 µM |  | > 100 µM | > 100 µM |  |  |  |  |  |  |  |  | 
O=C(C[N+]12CN3CN(CN(C3)C1)C2)c1ccc(-c2ccccc2)cc1 | 57.5 µM | 40 µM | 34.3 µM | 34 µM |  | 42.8 µM | 61.8 µM | > 100 µM | 39.3 µM | 38.6 µM |  |  |  |  |  |  |  |  | 
S=C(NCc1ccccn1)N/N=C/c1ccccn1 | 28.6 µM | > 100 µM |  | > 84.9 µM | < 0.01 µM | > 100 µM | 32.6 µM | > 61.5 µM | 38.3 µM | > 100 µM |  |  |  |  |  |  |  |  | 
CCOC(=O)c1ccc(N(CCOS(C)(=O)=O)CCOS(C)(=O)=O)cc1 | > 100 µM | 47 µM | > 100 µM | > 100 µM | > 100 µM | > 100 µM | 39.3 µM | > 100 µM | > 100 µM |  |  |  |  |  |  |  |  |  | 
COc1cc2c(oc(=O)c3c4occc4cc(OC)c23)c2cccc(O)c12 | > 100 µM |  |  |  | > 100 µM |  | > 100 µM |  | > 100 µM | > 100 µM |  |  |  |  |  |  |  |  | 
Cc1c(C#N)c2nnn(-c3cccc(Cl)c3)c(=O)n2c1-c1ccccc1 | > 100 µM | 40.4 µM | 6.1 µM | 9.91 µM | 2.61 µM |  | > 100 µM | 53.9 µM | > 100 µM | 7.76 µM |  |  |  |  |  |  |  |  | 
